{"source": "patent US20250052765A1", "about": "“Nanobody Discovery Platform and Related Methods” (Carnegie Mellon University, priority 2021, published 2025)", "key": {"LaG18/GFP strain": {"test_system": "LaG18/GFP strain", "conditions": "300 nM TD during cell culture; bleached for 90 sec at 525 nm", "experimental": "Flow cytometer histograms of LaG18/GFP strain labeled during cell culture with 300 nM TD. Mean values are shown; unbleached (red), bleached for 90 sec at 525 nm (blue), and unlabeled control cells (orange)."}}}
{"substance": "sulfonate TO1-PEG3500-MG", "values": [{"measurement": "binding affinities of NB/TPD complexes efficiently locked/captured on the yeast cell surface", "setting": "NB/TPD complexes", "value": "≤ 20", "unit": "µM"}, {"measurement": "loss of rFAP/MG (TPD) signal after bleaching TO1 end of TD", "setting": "LaG18/GFP strain", "value": "about half of the rFAP/MG signal is lost"}]}
